# In ChEMBL document CHEMBL1152829, “2,3-Disubstituted 8-arylamino-3H-imidazo[4,5-g]quinazolines: a novel class of antitumor agents” (Eur J Med Chem, 2009):
# Test system: A549
# Assay: Cytotoxicity against human A549 cells after 96 hrs by MTT assay
# Format: functional, cell-based
# Details: A549, 96 h
row,Compound,IC50 [µM]
1,COc1ccc(Nc2ncnc3cc4c(cc23)nc(C(C)C)n4C2CCCCC2)cc1,7.31
2,CCCCn1c(C(C)C)nc2cc3c(Nc4ccc(OC)cc4)ncnc3cc21,8.29
3,CCOCCCn1c(CC(C)C)nc2cc3c(Nc4ccc(OC)cc4)ncnc3cc21,2.81
4,CCOCCCn1c(CC)nc2cc3c(Nc4ccc(OC)cc4)ncnc3cc21,6.05
5,COCCCn1c(C(C)C)nc2cc3c(Nc4ccc(OC)cc4)ncnc3cc21,15.8
6,COc1ccc(Nc2ncnc3cc4c(cc23)nc(C(C)C)n4C(C)C)cc1,6.26
7,CCCCn1c(C(C)C)nc2cc3c(Nc4ccc(OC)c(OC)c4)ncnc3cc21,5.58
8,CC(C)c1nc2cc3c(Nc4ccccc4)ncnc3cc2n1C1CCCCC1,22.1
9,CCCc1nc2cc3c(Nc4ccc(OC)cc4)ncnc3cc2n1CCCOCC,18.3
10,CCOCCCn1c(C(C)C)nc2cc3c(Nc4ccc(OC)cc4)ncnc3cc21,4.59
11,CCOCCCn1c(Cc2ccccc2)nc2cc3c(Nc4ccc(OC)cc4)ncnc3cc21,22.1
12,CCCc1nc2cc3c(Nc4ccc(OC)c(OC)c4)ncnc3cc2n1CCCOC,11.5
13,CCCCCCc1nc2cc3c(Nc4ccc(OC)cc4)ncnc3cc2n1CCCOCC,39
14,CCCCn1c(C(C)C)nc2cc3c(Nc4ccc(C)cc4)ncnc3cc21,12.1
15,CCCCn1c(C(C)C)nc2cc3c(Nc4ccc(F)cc4)ncnc3cc21,4.25

# Test system: K562
# Assay: Cytotoxicity against human K562 cells after 96 hrs by MTT assay
# Format: functional, cell-based
# Details: K562, 96 h
row,Compound,IC50 [µM]
1,COc1ccc(Nc2ncnc3cc4c(cc23)nc(C(C)C)n4C2CCCCC2)cc1,19.3
2,CCCCn1c(C(C)C)nc2cc3c(Nc4ccc(OC)cc4)ncnc3cc21,> 100
3,CCOCCCn1c(CC(C)C)nc2cc3c(Nc4ccc(OC)cc4)ncnc3cc21,14.4
4,CCOCCCn1c(CC)nc2cc3c(Nc4ccc(OC)cc4)ncnc3cc21,> 100
5,COCCCn1c(C(C)C)nc2cc3c(Nc4ccc(OC)cc4)ncnc3cc21,> 100
6,COc1ccc(Nc2ncnc3cc4c(cc23)nc(C(C)C)n4C(C)C)cc1,> 100
7,CCCCn1c(C(C)C)nc2cc3c(Nc4ccc(OC)c(OC)c4)ncnc3cc21,18.5
8,CC(C)c1nc2cc3c(Nc4ccccc4)ncnc3cc2n1C1CCCCC1,17.4
9,CCCc1nc2cc3c(Nc4ccc(OC)cc4)ncnc3cc2n1CCCOCC,> 100
10,CCOCCCn1c(C(C)C)nc2cc3c(Nc4ccc(OC)cc4)ncnc3cc21,5.18
11,CCOCCCn1c(Cc2ccccc2)nc2cc3c(Nc4ccc(OC)cc4)ncnc3cc21,12.9
12,CCCc1nc2cc3c(Nc4ccc(OC)c(OC)c4)ncnc3cc2n1CCCOC,14.3
13,CCCCCCc1nc2cc3c(Nc4ccc(OC)cc4)ncnc3cc2n1CCCOCC,40.9
14,CCCCn1c(C(C)C)nc2cc3c(Nc4ccc(C)cc4)ncnc3cc21,> 100
15,CCCCn1c(C(C)C)nc2cc3c(Nc4ccc(F)cc4)ncnc3cc21,5.55

# Test system: PC-3
# Assay: Cytotoxicity against human PC3 cells after 96 hrs by MTT assay
# Format: functional, cell-based
# Details: PC-3, 96 h
row,Compound,IC50 [µM]
1,COc1ccc(Nc2ncnc3cc4c(cc23)nc(C(C)C)n4C2CCCCC2)cc1,23
2,CCCCn1c(C(C)C)nc2cc3c(Nc4ccc(OC)cc4)ncnc3cc21,18.9
3,CCOCCCn1c(CC(C)C)nc2cc3c(Nc4ccc(OC)cc4)ncnc3cc21,> 100
4,CCOCCCn1c(CC)nc2cc3c(Nc4ccc(OC)cc4)ncnc3cc21,> 100
5,COCCCn1c(C(C)C)nc2cc3c(Nc4ccc(OC)cc4)ncnc3cc21,> 100
6,COc1ccc(Nc2ncnc3cc4c(cc23)nc(C(C)C)n4C(C)C)cc1,> 100
7,CCCCn1c(C(C)C)nc2cc3c(Nc4ccc(OC)c(OC)c4)ncnc3cc21,> 100
8,CC(C)c1nc2cc3c(Nc4ccccc4)ncnc3cc2n1C1CCCCC1,24.7
9,CCCc1nc2cc3c(Nc4ccc(OC)cc4)ncnc3cc2n1CCCOCC,> 100
10,CCOCCCn1c(C(C)C)nc2cc3c(Nc4ccc(OC)cc4)ncnc3cc21,> 100
11,CCOCCCn1c(Cc2ccccc2)nc2cc3c(Nc4ccc(OC)cc4)ncnc3cc21,> 100
12,CCCc1nc2cc3c(Nc4ccc(OC)c(OC)c4)ncnc3cc2n1CCCOC,24.6
13,CCCCCCc1nc2cc3c(Nc4ccc(OC)cc4)ncnc3cc2n1CCCOCC,> 100
14,CCCCn1c(C(C)C)nc2cc3c(Nc4ccc(C)cc4)ncnc3cc21,24.8
15,CCCCn1c(C(C)C)nc2cc3c(Nc4ccc(F)cc4)ncnc3cc21,9.74

# Test system: MOLT-4
# Assay: Cytotoxicity against human MOLT4 cells after 96 hrs by MTT assay
# Format: functional, cell-based
# Details: MOLT-4, 96 h
row,Compound,IC50 [µM]
1,COc1ccc(Nc2ncnc3cc4c(cc23)nc(C(C)C)n4C2CCCCC2)cc1,7.69
2,CCCCn1c(C(C)C)nc2cc3c(Nc4ccc(OC)cc4)ncnc3cc21,11.5
3,CCOCCCn1c(CC(C)C)nc2cc3c(Nc4ccc(OC)cc4)ncnc3cc21,> 100
4,CCOCCCn1c(CC)nc2cc3c(Nc4ccc(OC)cc4)ncnc3cc21,> 100
5,COCCCn1c(C(C)C)nc2cc3c(Nc4ccc(OC)cc4)ncnc3cc21,> 100
6,COc1ccc(Nc2ncnc3cc4c(cc23)nc(C(C)C)n4C(C)C)cc1,> 100
7,CCCCn1c(C(C)C)nc2cc3c(Nc4ccc(OC)c(OC)c4)ncnc3cc21,6.63
8,CC(C)c1nc2cc3c(Nc4ccccc4)ncnc3cc2n1C1CCCCC1,2.83
9,CCCc1nc2cc3c(Nc4ccc(OC)cc4)ncnc3cc2n1CCCOCC,> 100
10,CCOCCCn1c(C(C)C)nc2cc3c(Nc4ccc(OC)cc4)ncnc3cc21,> 100
11,CCOCCCn1c(Cc2ccccc2)nc2cc3c(Nc4ccc(OC)cc4)ncnc3cc21,> 100
12,CCCc1nc2cc3c(Nc4ccc(OC)c(OC)c4)ncnc3cc2n1CCCOC,10.9
13,CCCCCCc1nc2cc3c(Nc4ccc(OC)cc4)ncnc3cc2n1CCCOCC,> 100
14,CCCCn1c(C(C)C)nc2cc3c(Nc4ccc(C)cc4)ncnc3cc21,> 100
15,CCCCn1c(C(C)C)nc2cc3c(Nc4ccc(F)cc4)ncnc3cc21,11.4

# Test system: MDA-MB-231
# Assay: Cytotoxicity against human MDA-MB-231 cells after 96 hrs by MTT assay
# Format: functional, cell-based
# Details: MDA-MB-231, 96 h
row,Compound,IC50 [µM]
1,COc1ccc(Nc2ncnc3cc4c(cc23)nc(C(C)C)n4C2CCCCC2)cc1,21.1
2,CCCCn1c(C(C)C)nc2cc3c(Nc4ccc(OC)cc4)ncnc3cc21,> 100
3,CCOCCCn1c(CC(C)C)nc2cc3c(Nc4ccc(OC)cc4)ncnc3cc21,> 100
4,CCOCCCn1c(CC)nc2cc3c(Nc4ccc(OC)cc4)ncnc3cc21,> 100
5,COCCCn1c(C(C)C)nc2cc3c(Nc4ccc(OC)cc4)ncnc3cc21,> 100
6,COc1ccc(Nc2ncnc3cc4c(cc23)nc(C(C)C)n4C(C)C)cc1,35.7
7,CCCCn1c(C(C)C)nc2cc3c(Nc4ccc(OC)c(OC)c4)ncnc3cc21,20
8,CC(C)c1nc2cc3c(Nc4ccccc4)ncnc3cc2n1C1CCCCC1,> 100
9,CCCc1nc2cc3c(Nc4ccc(OC)cc4)ncnc3cc2n1CCCOCC,> 100
10,CCOCCCn1c(C(C)C)nc2cc3c(Nc4ccc(OC)cc4)ncnc3cc21,> 100
11,CCOCCCn1c(Cc2ccccc2)nc2cc3c(Nc4ccc(OC)cc4)ncnc3cc21,15.5
12,CCCc1nc2cc3c(Nc4ccc(OC)c(OC)c4)ncnc3cc2n1CCCOC,20.6
13,CCCCCCc1nc2cc3c(Nc4ccc(OC)cc4)ncnc3cc2n1CCCOCC,> 100
14,CCCCn1c(C(C)C)nc2cc3c(Nc4ccc(C)cc4)ncnc3cc21,10.7
15,CCCCn1c(C(C)C)nc2cc3c(Nc4ccc(F)cc4)ncnc3cc21,20

# Test system: A549 (Homo sapiens)
# Assay: Cell cycle arrest in human A549 cells assessed as accumulation at S phase at 10 umol/L after 24 hrs by FACS relative to untreated control
# Details: not given
row,Compound,percent of cells in S phase [%]
1,CCOCCCn1c(CC(C)C)nc2cc3c(Nc4ccc(OC)cc4)ncnc3cc21,15.41
2,CCOCCCn1c(C(C)C)nc2cc3c(Nc4ccc(OC)cc4)ncnc3cc21,16.22
3,CCCCn1c(C(C)C)nc2cc3c(Nc4ccc(F)cc4)ncnc3cc21,10.73
4,COc1cc2ncnc(Nc3ccc(F)c(Cl)c3)c2cc1OCCCN1CCOCC1 [GEFITINIB],19.24

# Test system: A549 (Homo sapiens)
# Assay: Cell cycle arrest in human A549 cells assessed as accumulation at G2/M phase at 10 umol/L after 24 hrs by FACS relative to untreated control
# Details: not given
row,Compound,Percentage of cells in G2/M phase [%]
1,CCOCCCn1c(CC(C)C)nc2cc3c(Nc4ccc(OC)cc4)ncnc3cc21,3.12
2,CCOCCCn1c(C(C)C)nc2cc3c(Nc4ccc(OC)cc4)ncnc3cc21,3.4
3,CCCCn1c(C(C)C)nc2cc3c(Nc4ccc(F)cc4)ncnc3cc21,2.99
4,COc1cc2ncnc(Nc3ccc(F)c(Cl)c3)c2cc1OCCCN1CCOCC1 [GEFITINIB],4.64

# Test system: A549 (Homo sapiens)
# Assay: Cell cycle arrest in human A549 cells assessed as accumulation at G0/G1 phase at 10 umol/L after 24 hrs by FACS relative to untreated control
# Details: not given
row,Compound,Activity [%]
1,CCOCCCn1c(CC(C)C)nc2cc3c(Nc4ccc(OC)cc4)ncnc3cc21,81.47
2,CCOCCCn1c(C(C)C)nc2cc3c(Nc4ccc(OC)cc4)ncnc3cc21,80.38
3,CCCCn1c(C(C)C)nc2cc3c(Nc4ccc(F)cc4)ncnc3cc21,86.28
4,COc1cc2ncnc(Nc3ccc(F)c(Cl)c3)c2cc1OCCCN1CCOCC1 [GEFITINIB],76.12
